The assay deals with TNFα-induced IL6 mRNA. Kind of assay: Dose-response on TNFα-induced IL6 mRNA levels. It is filed as cell-based, human. As to conditions: read-out: IC50, inflammatory gene inhibition (TNFα-induced transcription, FIG. 3D). The protocol:
Bars represent the mean of at least 3±SEM independent experiments. The asterisks denote statistical significance differences relative to DMSO+TNFα control according to Student's t tests (typically one tailed, paired): *p<0.05; **p<0.01; ***p<0.005; ****p<0.001. […] Shown are mRNA levels of A20 (normalized to GAPDH) in Hela cells treated with SPI-21 and TNFα and incubated with actinomycin D for the indicated time points, as determined by real-time qPCR. The data points present the mean of 3±SEM independent experiments. […] Shown are levels of mature and immature transcripts in cells incubated for 1 hour with DMSO (vehicle control) or 50 μM of SPI-21 or SPI-18 followed by treatment with TNFα for an additional one hour, as determined by real-time qPCR using primers spanning exons 3 and 4 (mature, black arrows shown in the scheme of G, SEQ ID NOs: 47 and 48) or intron 1 and exon 2 (immature, red arrows shown in the scheme of G, SEQ ID NOs: 49 and 50). […] DMSO (vehicle control), SPI-21 or SPI-18 treated cells were induced by TNFα for the indicated times and the levels of IκBα and β-Tubulin proteins were analyzed by western blot as indicated. […] The occupancy of the A20 gene was analyzed by qPCR using primers from the first (A, SEQ ID NOs: 55 and 56), third (B, SEQ ID NOs: 57 and 58) and last (C, SEQ ID NOs: 59 and 60) exon-intron junctions. […]

SMILES strings stand for the structures.

From patent US12661353B2, “SPT5 inhibitors and uses thereof” (Yeda Research and Development Co. Ltd., priority 2020, dated 2026) come the findings set out here.

In general, IC50 refers to the concentration at which inhibition is half-maximal.

On to `Nc1ccccc1SC(CC(=O)c1cccs1)c1cccs1` (stereo not shown) [SPI-18], for which the IC50 was 39 µM.
